In ChEMBL document CHEMBL1201862, “PubChem BioAssay data set” (2004):
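The compound was tested at five concentrations on cells cultured in 96-well plates, with a 48-hour exposure period. Abbreviation: GI50, concentration required for 50% inhibition of growth.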 Activity calls are given as the source filed them. Rule as the data show it: active = GI50 up to about 1.1 µM and inactive = higher.

How the values were obtained:
Experiment in all cases: NCI-60 cell line screen, 48 h
[1] = tested on: T47D
[2] = tested on: UO-31
[3] = tested on: SN12C
[4] = tested on: NCI/ADR-RES
[5] = tested on: HCT-15
[6] = tested on: RPMI-8226
[7] = tested on: CAKI-1
[8] = tested on: MCF7
[9] = tested on: PC-3
[10] = tested on: OVCAR-8
[11] = tested on: SW-620
[12] = tested on: HOP-92
[13] = tested on: A549
[14] = tested on: IGROV-1
[15] = tested on: NCI-H522
[16] = tested on: COLO 205
[17] = tested on: U-251
[18] = tested on: BT-549
[19] = tested on: 786-0
[20] = tested on: MOLT-4

Row | Structure (SMILES) | GI50 [1] | GI50 [2] | GI50 [3] | GI50 [4] | GI50 [5] [µM] | GI50 [6] | GI50 [7] | GI50 [8] | GI50 [9] | GI50 [10] | GI50 [11] | GI50 [12] | GI50 [13] | GI50 [14] | GI50 [15] | GI50 [16] | GI50 [17] | GI50 [18] | GI50 [19] | GI50 [20]
1 | COC(=O)c1cc(C)ccc1CC(Cc1cccc(C)c1)C(=O)OC (stereo unspecified) | > 100 µM (inactive) | > 100 µM (inactive) | > 100 µM (inactive) | 95.9 µM (inactive) | > 100 | 29.6 µM (inactive) | > 100 µM (inactive) | > 100 µM (inactive) | > 100 µM (inactive) | > 100 µM (inactive) | > 100 µM (inactive) | 25.8 µM (inactive) | > 100 µM (inactive) | > 100 µM (inactive) | 74.6 µM (inactive) | > 100 µM (inactive) | > 100 µM (inactive) | > 100 µM (inactive) | > 100 µM (inactive) | 23.4 µM (inactive)
2 | O=c1cnn(CCOCP(=O)(O)O)c(=O)[nH]1 | > 100 µM (inactive) | > 100 µM (inactive) | > 100 µM (inactive) | > 100 µM (inactive) |  | > 100 µM (inactive) | > 100 µM (inactive) | > 100 µM (inactive) | > 100 µM (inactive) | > 100 µM (inactive) | > 100 µM (inactive) | > 100 µM (inactive) | > 100 µM (inactive) | > 100 µM (inactive) | > 100 µM (inactive) | > 100 µM (inactive) | > 100 µM (inactive) | > 100 µM (inactive) |  | > 100 µM (inactive)
3 | O=C1c2ccccc2-[n+]2ccc3c([nH]c4ccccc43)c21 [FASCAPLYSIN CHLORIDE] | 0.755 µM (active) | 0.682 µM (active) | 0.231 µM (active) | 1.21 µM (inactive) | 0.851 | 0.186 µM (active) | 0.659 µM (active) | 0.184 µM (active) | 0.269 µM (active) | 0.439 µM (active) | 0.296 µM (active) | 1.66 µM (inactive) | 0.565 µM (active) | 0.196 µM (active) | 0.49 µM (active) | 0.21 µM (active) | 0.274 µM (active) | 2.26 µM (inactive) | 0.427 µM (active) | 0.285 µM (active)
4 | Cc1c(N2C(=O)CS(=O)(=O)C2c2cccc(Oc3ccccc3)c2)c(=O)n(-c2ccccc2)n1C (stereo unspecified) | 29 µM (inactive) | 62.7 µM (inactive) | 40.5 µM (inactive) | 61.2 µM (inactive) | 61.5 | 27.2 µM (inactive) | 42.3 µM (inactive) | 36.9 µM (inactive) | 43.3 µM (inactive) | 57.3 µM (inactive) | > 100 µM (inactive) | 44.2 µM (inactive) | 71.8 µM (inactive) | 46.9 µM (inactive) | 26.1 µM (inactive) | 28 µM (inactive) | > 100 µM (inactive) | 29.5 µM (inactive) |  | 20.5 µM (inactive)
5 | c1csc(-c2ccc(-c3cccs3)c3nsnc23)c1 | 0.141 µM (active) | 43.4 µM (inactive) | > 60.3 µM (inactive) | > 49.5 µM (inactive) | 0.261 | 12.2 µM (inactive) | > 59.8 µM (inactive) | 0.11 µM (active) | > 54 µM (inactive) | 19.7 µM (inactive) | 17.1 µM (inactive) | 35 µM (inactive) | 33.9 µM (inactive) | 0.875 µM (active) | > 100 µM (inactive) | 6.56 µM (inactive) | 30.2 µM (inactive) | > 52.7 µM (inactive) | 22.8 µM (inactive) | 8.89 µM (inactive)
6 | COc1c(Cl)ccc(Cl)c1C(=O)NNC(=O)c1c(Cl)c(Cl)c(Cl)c(Cl)c1-c1nc2cc(C(=O)c3ccccc3)ccc2[nH]1 | 15.5 µM (inactive) | 60.4 µM (inactive) | 70.8 µM (inactive) | > 100 µM (inactive) | 35 | 24.2 µM (inactive) | 95.3 µM (inactive) | 44.4 µM (inactive) | 37.8 µM (inactive) | 72.9 µM (inactive) | > 100 µM (inactive) | 52.6 µM (inactive) | 56 µM (inactive) | 31 µM (inactive) | 33.1 µM (inactive) | 47.4 µM (inactive) | 53.2 µM (inactive) | 67.3 µM (inactive) | 72.4 µM (inactive) | 20.6 µM (inactive)
7 | CN(C)c1ccc(/C=N/c2ccc(Oc3ccc(Cl)cc3)c(Cl)c2)cc1 | 16.8 µM (inactive) | 10.7 µM (inactive) | 21.6 µM (inactive) | 16.2 µM (inactive) | 18.9 | 11.4 µM (inactive) | 21.3 µM (inactive) | 42.7 µM (inactive) | 15.2 µM (inactive) | 17.5 µM (inactive) | 30.3 µM (inactive) | 18.2 µM (inactive) | 18.7 µM (inactive) | 21.7 µM (inactive) | 13.8 µM (inactive) | 22.1 µM (inactive) | 16.9 µM (inactive) | 16.6 µM (inactive) |  | 18.5 µM (inactive)
8 | COc1ccc(C2=C(Cl)c3cc(OC)c(OC)cc3C2Cl)cc1 (stereo unspecified) | 13.3 µM (inactive) | 6.55 µM (inactive) | 13.5 µM (inactive) | 12.7 µM (inactive) | 12.3 | 8.17 µM (inactive) | 15.4 µM (inactive) | 10.5 µM (inactive) | 12.8 µM (inactive) | 16.5 µM (inactive) | 15.3 µM (inactive) | 12.2 µM (inactive) | 15.4 µM (inactive) | 17.4 µM (inactive) | 12.5 µM (inactive) | 17.5 µM (inactive) | 13.7 µM (inactive) | 3.78 µM (inactive) | 12.2 µM (inactive) | 4.34 µM (inactive)
9 | COc1ccc2[nH]c(Cl)c(/C=C3/C(=O)Nc4cc(C)c(OC)cc43)c2c1 | 5.96 µM (inactive) | 12.2 µM (inactive) | 7.43 µM (inactive) | 2.44 µM (inactive) | 2.91 | 4.32 µM (inactive) | 7.35 µM (inactive) | 3.8 µM (inactive) | 3.33 µM (inactive) | 7.71 µM (inactive) | 4.21 µM (inactive) | 11.7 µM (inactive) | 5.26 µM (inactive) | 4.31 µM (inactive) | 2.9 µM (inactive) | 2.02 µM (inactive) | 4.88 µM (inactive) | 3.2 µM (inactive) | 5.68 µM (inactive) | 4.32 µM (inactive)
